What was measured:
[1] = target: Rv1625c (Mycobacterium tuberculosis, UniProt P9WQ35); experiment: cAMP production in cya- E. coli expressing Rv1625c; assay type: cell-based; details: cya- E. coli with Rv1625c expression plasmid, 18 hours
[2] = system: Mtb; experiment: microbe, parasite or virus in culture; assay type: cell-based, Mycobacterium tuberculosis; details: for inhibition of ΔRv1625c mutant: ΔRv1625c strain, cholesterol media

Chain of Rv1625c (P9WQ35 whole entry, looked up): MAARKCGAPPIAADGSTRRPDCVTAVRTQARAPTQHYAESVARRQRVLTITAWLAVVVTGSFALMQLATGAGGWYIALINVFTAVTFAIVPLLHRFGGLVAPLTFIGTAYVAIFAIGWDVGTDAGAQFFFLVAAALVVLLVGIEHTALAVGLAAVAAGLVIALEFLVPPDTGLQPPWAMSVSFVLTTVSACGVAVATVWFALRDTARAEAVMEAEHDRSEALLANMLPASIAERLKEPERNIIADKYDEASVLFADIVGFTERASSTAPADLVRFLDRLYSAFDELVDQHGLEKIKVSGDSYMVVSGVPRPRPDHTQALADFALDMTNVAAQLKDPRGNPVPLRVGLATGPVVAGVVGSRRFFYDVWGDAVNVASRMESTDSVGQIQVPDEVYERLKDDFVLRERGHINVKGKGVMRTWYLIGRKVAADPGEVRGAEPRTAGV

Structure (SMILES) | cAMP levels [1] | susceptibility of 2xrv1625c (rv1625c overexpression) strain relative to WT ([2]; 7H12+cholesterol media) | inhibition of ΔRv1625c mutant [2]
Cc1nonc1CC(=O)N1CCC(n2nnc(-c3ccc(F)cc3)n2)CC1 [V-59, 1-(4-(5-(4-fluorophenyl)-2H-tetrazol-2-yl)piperidin-1-yl)-2-(4-methyl-1,2,5-oxadiazol-3-yl)ethan-1-one] | increased cAMP levels | ~ 15 fold | refractory
Cn1ncnc1CC(=O)N1CCC(c2nc(-c3ccc(Cl)c(Cl)c3)no2)CC1 [mCLB073, 1-(4-(3-(3,4-dichlorophenyl)-1,2,4-oxadiazol-5-yl)-1-piperidinyl)-2-(2-methyl-2H-1,2,4-triazol-3-yl)-1-ethanone] | – | – | refractory
